The target in this assay is T1, ERα protein (HiBiT-tagged) in ESR1_HiBiT KI MCF7 cells (Homo sapiens, UniProt P03372).
T1 sequence (P03372 1-595): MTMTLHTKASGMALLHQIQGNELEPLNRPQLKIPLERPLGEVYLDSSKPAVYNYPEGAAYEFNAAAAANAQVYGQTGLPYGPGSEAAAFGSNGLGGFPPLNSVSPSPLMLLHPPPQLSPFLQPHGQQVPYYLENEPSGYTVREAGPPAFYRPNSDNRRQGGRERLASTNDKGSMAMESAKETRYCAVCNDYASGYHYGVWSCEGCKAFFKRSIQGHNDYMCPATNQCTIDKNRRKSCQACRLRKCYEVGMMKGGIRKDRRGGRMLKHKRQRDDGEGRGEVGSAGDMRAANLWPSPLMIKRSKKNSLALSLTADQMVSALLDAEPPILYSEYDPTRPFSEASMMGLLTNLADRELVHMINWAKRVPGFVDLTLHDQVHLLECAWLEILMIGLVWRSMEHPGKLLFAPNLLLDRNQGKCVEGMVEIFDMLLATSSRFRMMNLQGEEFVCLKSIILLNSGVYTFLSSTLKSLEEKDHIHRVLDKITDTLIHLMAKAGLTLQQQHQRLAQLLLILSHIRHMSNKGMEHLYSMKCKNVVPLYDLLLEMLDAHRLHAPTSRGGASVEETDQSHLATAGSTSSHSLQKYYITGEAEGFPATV
Nature of the assay: Nano Glo HiBiT Lytic Degradation Assay. Format: cell-based. As to conditions: 6 hours with compound, 14-point dose response 1:3, bell-shape curve fit, half-maximal effect of first Hill model, read-out: MCF7 ESR1 HiBiT - (DC50). The gist of the method:
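HiBiT-tagged endogenous ERα remaining in MCF7 knock-in cells was quantified by lytic luminescence after a 6 h treatment. DC50 values derive from a bell-shaped curve, taken at the first Hill component's half-maximal effect.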
On the technique in general: HiBiT is a short tag that completes a luciferase, so light tracks the accessible tagged protein.

Each structure is given as a SMILES string. Bounds are passed on as bounds.

With `O=C1CC[C@H](N2Cc3cc(N4CCN(CC5CCN(c6cc(F)c([C@@H]7c8ccc(O)cc8CC[C@@H]7C7CCCCC7)c(F)c6)CC5)CC4)ccc3C2=O)C(=O)N1` [Compound I-119, (S)-3-(5-(4-((1-(4-((1S,2R)-2-cyclohexyl-6-hydroxy-1,2,3,4-tetrahydronaphthalen-1-yl)-3,5-difluorophenyl)piperidin-4-yl)methyl)piperazin-1-yl)-1-oxoisoindolin-2-yl)piperidine-2,6-dione], the DC50 (in general, the concentration at which degradation of the target reaches its halfway point) is 6 nM.
For `O=C1CC[C@H](N2Cc3cc(N4CCN(CC5CCN(c6ccc([C@H]7c8ccc(O)cc8CC[C@H]7CC7CCCC7)cc6)CC5)CC4)ccc3C2=O)C(=O)N1` [Compound I-120, (S)-3-(5-(4-((1-(4-((1S,2S)-2-(cyclopentylmethyl)-6-hydroxy-1,2,3,4-tetrahydronaphthalen-1-yl)phenyl)piperidin-4-yl)methyl)piperazin-1-yl)-1-oxoisoindolin-2-yl)piperidine-2,6-dione] the value was at least 10000 nM.
For `O=C1CC[C@H](N2Cc3cc(N4CCN(CC5CCN(c6ccc([C@@H]7c8ccc(O)cc8CC[C@@H]7CC7CCCC7)cc6)CC5)CC4)ccc3C2=O)C(=O)N1` [Compound I-121, (S)-3-(5-(4-((1-(4-((1R,2R)-2-(cyclopentylmethyl)-6-hydroxy-1,2,3,4-tetrahydronaphthalen-1-yl)phenyl)piperidin-4-yl)methyl)piperazin-1-yl)-1-oxoisoindolin-2-yl)piperidine-2,6-dione] the value was 3 nM.
For `O=C1CC[C@H](N2Cc3cc(N4CCN(CC5CCN(c6ccc([C@H]7c8ccc(O)cc8COC78CCCCC8)cc6)CC5)CC4)ccc3C2=O)C(=O)N1` [Compound I-122, (S)-3-(5-(4-((1-(4-((S)-7′-hydroxyspiro[cyclohexane-1,3′-isochroman]-4′-yl)phenyl)piperidin-4-yl)methyl)piperazin-1-yl)-1-oxoisoindolin-2-yl)piperidine-2,6-dione] the value was at least 10000 nM; for `O=C1CC[C@H](N2Cc3cc(N4CCN(CC5CCN(c6ccc([C@@H]7c8ccc(O)cc8COC78CCCCC8)cc6)CC5)CC4)ccc3C2=O)C(=O)N1` [Compound I-123, (S)-3-(5-(4-((1-(4-((R)-7′-hydroxyspiro[cyclohexane-1,3′-isochroman]-4′-yl)phenyl)piperidin-4-yl)methyl)piperazin-1-yl)-1-oxoisoindolin-2-yl)piperidine-2,6-dione], 0.31 nM; for `C[C@H]1CCc2cc(O)ccc2[C@H]1c1ccc(N2CCC(CN3CCN(c4ccc5c(c4)CN([C@H]4CCC(=O)NC4=O)C5=O)CC3)CC2)cc1` [Compound I-124, (S)-3-(5-(4-((1-(4-((1R,2S)-6-hydroxy-2-methyl-1,2,3,4-tetrahydronaphthalen-1-yl)phenyl)piperidin-4-yl)methyl)piperazin-1-yl)-1-oxoisoindolin-2-yl)piperidine-2,6-dione], 1 nM.
For the compound `C[C@@H]1CCc2cc(O)ccc2[C@@H]1c1ccc(N2CCC(CN3CCN(c4ccc5c(c4)CN([C@H]4CCC(=O)NC4=O)C5=O)CC3)CC2)cc1` [Compound I-125, (S)-3-(5-(4-((1-(4-((1S,2R)-6-hydroxy-2-methyl-1,2,3,4-tetrahydronaphthalen-1-yl)phenyl)piperidin-4-yl)methyl)piperazin-1-yl)-1-oxoisoindolin-2-yl)piperidine-2,6-dione], the DC50 was determined as 3300 nM.
With `O=C1CC[C@H](N2Cc3cc(N4CCN(CC5CCN(c6ccc([C@@H]7c8ccc(O)cc8CC[C@@H]7c7cccc(O)c7)cc6)CC5)CC4)ccc3C2=O)C(=O)N1` [Compound I-126, (3S)-3-[5-[4-[[1-[4-[(1R,2S)-6-hydroxy-2-(3-hydroxyphenyl)tetralin-1-yl]phenyl]-4-piperidyl]methyl]piperazin-1-yl]-1-oxo-isoindolin-2-yl]piperidine-2,6-dione], the DC50 is 0.07 nM.
For `O=C1CC[C@H](N2Cc3cc(N4CCN(CC5CCN(c6ccc([C@H]7c8ccc(O)cc8CC[C@H]7c7cccc(O)c7)cc6)CC5)CC4)ccc3C2=O)C(=O)N1` [Compound I-127, (3S)-3-[5-[4-[[1-[4-[(1S,2R)-6-hydroxy-2-(3-hydroxyphenyl)tetralin-1-yl]phenyl]-4-piperidyl]methyl]piperazin-1-yl]-1-oxo-isoindolin-2-yl]piperidine-2,6-dione] the value was at least 10000 nM; for `O=C1CC[C@H](N2Cc3cc(N4CCN(CC5CCN(c6ccc([C@H]7c8ccc(O)cc8CC[C@H]7c7ccc(O)cc7)cc6)CC5)CC4)ccc3C2=O)C(=O)N1` [Compound I-130, (35)-3-[5-[4-[[1-[4-[(1S, 2R)-6-hydroxy-2-(4-hydroxyphenyl)tetralin-1-yl]phenyl]-4-piperidyl]methyl]piperazin-1-yl]-1-oxo-isoindolin-2-yl]piperidine-2,6-dione], at least 10000 nM; for `O=C1CC[C@H](N2Cc3cc(N4CCN(CC5CCN(c6ccc([C@@H]7c8ccc(O)cc8CC[C@@H]7c7ccc(O)cc7)cc6)CC5)CC4)ccc3C2=O)C(=O)N1` [Compound I-131, (35)-3-[5-[4-[[1-[4-[(1R, 2S)-6-hydroxy-2-(4-hydroxyphenyl)tetralin-1-yl]phenyl]-4-piperidyl]methyl]piperazin-1-yl]-1-oxo-isoindolin-2-yl]piperidine-2,6-dione], 0.03 nM.
For `O=C1CC[C@H](N2Cc3cc(N4CCN(CC5CCN(c6ccc([C@@H]7c8ccc(O)cc8CC[C@@H]7c7ccncc7)cc6)CC5)CC4)ccc3C2=O)C(=O)N1` [Compound I-132, (S)-3-(5-(4-((1-(4-((1R,2S)-6-hydroxy-2-(pyridin-4-yl)-1,2,3,4-tetrahydronaphthalen-1-yl)phenyl)piperidin-4-yl)methyl)piperazin-1-yl)-1-oxoisoindolin-2-yl)piperidine-2,6-dione] the value was 0.0491 nM; for `O=C1CC[C@H](N2Cc3cc(N4CCN(CC5CCN(c6ccc([C@H]7c8ccc(O)cc8CC[C@H]7C7CCCCCC7)cc6)CC5)CC4)ccc3C2=O)C(=O)N1` [Compound I-134, (3S)-3-[5-[4-[[1-[4-[(1S,2S)-2-cycloheptyl-6-hydroxy-tetralin-1-yl]phenyl]-4-piperidyl]methyl]piperazin-1-yl]-1-oxo-isoindolin-2-yl]piperidine-2,6-dione], at least 10000 nM.
The result for `O=C1CC[C@H](N2Cc3cc(N4CCN(CC5CCN(c6ccc([C@H]7c8ccc(O)cc8CC[C@H]7C7CCCCC7)c(F)c6)CC5)CC4)ccc3C2=O)C(=O)N1` [Compound I-136, (S)-3-(5-(4-((1-(4-((1R,2S)-2-cyclohexyl-6-hydroxy-1,2,3,4-tetrahydronaphthalen-1-yl)-3-fluorophenyl)piperidin-4-yl)methyl)piperazin-1-yl)-1-oxoisoindolin-2-yl)piperidine-2,6-dione] reads at least 10000 nM; that for `O=C1CC[C@H](N2Cc3cc(N4CCN(CC5CCN(c6ccc([C@@H]7c8ccc(O)cc8CC[C@@H]7C7CCCCC7)c(F)c6)CC5)CC4)ccc3C2=O)C(=O)N1` [Compound I-137, (S)-3-(5-(4-((1-(4-((1S,2R)-2-cyclohexyl-6-hydroxy-1,2,3,4-tetrahydronaphthalen-1-yl)-3-fluorophenyl)piperidin-4-yl)methyl)piperazin-1-yl)-1-oxoisoindolin-2-yl)piperidine-2,6-dione], at least 10000 nM.
Take `Cc1cc(N2CCC(CN3CCN(c4ccc5c(c4)CN([C@H]4CCC(=O)NC4=O)C5=O)CC3)CC2)ccc1[C@H]1c2ccc(O)cc2CC[C@H]1c1ccccc1` [Compound I-138, (S)-3-(5-(4-((1-(4-((1S,2R)-6-hydroxy-2-phenyl-1,2,3,4-tetrahydronaphthalen-1-yl)-3-methylphenyl)piperidin-4-yl)methyl)piperazin-1-yl)-1-oxoisoindolin-2-yl)piperidine-2,6-dione]: the 50% degradation concentration (DC50) is at least 10000 nM.
The result for `Cc1cc(N2CCC(CN3CCN(c4ccc5c(c4)CN([C@H]4CCC(=O)NC4=O)C5=O)CC3)CC2)ccc1[C@@H]1c2ccc(O)cc2CC[C@@H]1c1ccccc1` [Compound I-139, (S)-3-(5-(4-((1-(4-((1R,2S)-6-hydroxy-2-phenyl-1,2,3,4-tetrahydronaphthalen-1-yl)-3-methylphenyl)piperidin-4-yl)methyl)piperazin-1-yl)-1-oxoisoindolin-2-yl)piperidine-2,6-dione] reads 0.76 nM; that for `Cc1cc(N2CCC(CN3CCN(c4ccc5c(c4)CN([C@H]4CCC(=O)NC4=O)C5=O)CC3)CC2)ccc1[C@H]1c2ccc(O)cc2CC[C@H]1C1CCCCC1` [Compound I-140, (S)-3-(5-(4-((1-(4-((1S,2S)-2-cyclohexyl-6-hydroxy-1,2,3,4-tetrahydronaphthalen-1-yl)-3-methylphenyl)piperidin-4-yl)methyl)piperazin-1-yl)-1-oxoisoindolin-2-yl)piperidine-2,6-dione], at least 10000 nM.
